Among the data in patent US12180434B2, “Spiro compounds as malodor counteracting ingredients” (Firmenich SA, priority 2017, dated 2024) are IC50 values, retold here.

The target in the assay is T1, OR51E1 olfactory receptor (Homo sapiens, UniProt Q8TCB6).
T1 construct: expressed in transfected cells
T1 sequence (Q8TCB6 1-318): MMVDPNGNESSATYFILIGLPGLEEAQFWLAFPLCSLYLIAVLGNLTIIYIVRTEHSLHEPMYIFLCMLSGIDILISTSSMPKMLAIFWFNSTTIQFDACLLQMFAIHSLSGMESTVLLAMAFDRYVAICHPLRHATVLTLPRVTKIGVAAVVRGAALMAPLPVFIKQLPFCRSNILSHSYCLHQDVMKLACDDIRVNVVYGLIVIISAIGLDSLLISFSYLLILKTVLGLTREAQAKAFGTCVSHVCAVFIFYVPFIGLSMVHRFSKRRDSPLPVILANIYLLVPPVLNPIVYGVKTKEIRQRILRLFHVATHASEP
Briefly: Inhibitory dose-response assay in a cell line expressing the butyric acid olfactory receptor OR51E1. It is filed as cell-based.

Where [1] appears, read: highly stringent screening conditions, cells treated with 67 μM butyric acid (EC94), read-out: calculated IC50, inhibitor of the butyric acid olfactory receptor OR51E1.

By IC50 is commonly meant the concentration needed to halve the response being measured.

Where a name gives a salt, the structure may show the parent alone. Read-outs that look alike come from different tables or passages of the source.

As to `COC1C(C)(C)CCCC12CC=CC2` (centres unmarked) [Compound 8, 10-methoxy-9,9-dimethylspiro[4.5]dec-2-ene], under setting [1], the IC50 is 193 µM. As for `CC(=O)OC1C(C)(C)CCCC12CC=C(C)CC2C` (centres unmarked) [Compound 6, (3,5,10,10-tetramethylspiro[5.5]undec-2-en-11-yl) acetate], the IC50 under setting [1] is 78.1 µM. As for `CC(=O)OC1C(C)(C)CCCC12CC(C)=C(C)C2` (centres unmarked) [Compound 2, (2,3,9,9-tetramethylspiro[4.5]dec-2-en-10-yl) acetate], the IC50 under setting [1] is 18.6 µM. Still for that read-out and setting: with `CC(=O)OC1C(C)(C)CCCC12CC=CC2` (centres unmarked) [Compound 7, (9,9-dimethylspiro[4.5]dec-2-en-10-yl) acetate] the figure was 84.3 µM. On the same count and under the same terms, the same measure for `CC1CCCCC12CCCCC2O` (centres unmarked) [Compound 12, 11-methylspiro[5.5]undecan-5-ol]: 805 µM; for `CC(=O)OC1C(C)(C)CCCC12C(C)C=CCC2C` (centres unmarked) [Compound 3, (1,5,10,10-tetramethylspiro[5.5]undec-3-en-11-yl) acetate]: 4.74 µM. Still for that read-out and setting: the same measure for `CC(=O)O[C@@H]1C(C)(C)CCC[C@]12CC=C(C)C[C@H]2C` (racemic) [Compound 1, (1RS,6RS,11RS)-2,2,9,11-tetramethylspiro[5.5]undec-8-en-1-yl acetate]: 45.2 µM; for `CC(=O)OC(C1C(C)C=C(C)CC1C)C(C)(C)C` (centres unmarked) [Compound 17, [2,2-dimethyl-1-(2,4,6-trimethylcyclohex-3-en-1-yl)propyl]acetate]: 43.4 µM. As to `CC(=O)O[C@H]([C@H]1CCCC[C@@H]1C)C(C)(C)C` (racemic) [Compound 14, (1RS)-2,2-dimethyl-1-[(1SR,2SR)-2-methylcyclohexyl]propyl acetate], the IC50 is 68.6 µM under setting [1] and 170 µM (table, butyric acid at EC80, EC87, EC90, or EC100, read-out: IC50). With `CC1CC=CCC12CCCC(C)(C)C2OC=O` (centres unmarked) [Compound 5, (5,10,10-trimethylspiro[5.5]undec-2-en-11-yl) formate], under setting [1], the IC50 is 46.9 µM.
